≈ marks a conversion by molar mass, not a printed value. Like-named read-outs stand apart in the source and are kept apart here.
Columns and labels:
Serratia marcescens = assay: MIC, broth microdilution, standard strains and Japanese clinical isolates (Example 5, Table 4); type: cell-based
Klebsiella aerogenes = assay: as above; type: cell-based; details: carbapenemase genes -
A. baumannii = assay: MIC, broth microdilution, 6 strains (Example 6, Table 7); type: cell-based; details: Acinetobacter baumannii, Carbapenem-resistant, read-out: MIC
E. coli = assay: MIC, Gram-negative bacteria clinically isolated in the United States (Example 8, Table 16); type: cell-based; details: E. coli (80 strains) isolated in the United States, Compound A µg/mL in parentheses
P. aeruginosa [1] = assay: as above; type: cell-based; details: Pseudomonas aeruginosa; P. aeruginosa (80 strains) isolated in the United States; Compound A µg/mL in parentheses
[2] = tested on: carbapenemase-producing Enterobacteriaceae (CPE); assay: MIC with human plasma or human serum albumin added (Example 12, Table 28); type: cell-based
[3] = mouse, in vivo
[4] = tested on: K. pneumoniae ATCCBAA-2344 producing KPC-2; assay: Systemic infection lethal mouse model, ED50 (Example 14, Table 31); details: 7 days after infection
Protocol: The test strains on the agar medium were suspended in saline and adjusted to a Klett unit of about 200 using a Klett Photoelectric Colorimeter. […] Male ICR mice were inoculated intraperitoneally with 0.2 mL of the bacterial suspension. Two hours after the inoculation, saline or a solution for administering the agent at each concentration was administered subcutaneously to the mice in a single dose. The number of mice that survived from Day 1 to Day 7 after infection was recorded.

Acinetobacter baumannii = assay: Systemic infection lethal mouse model, ED50 (Example 15, Table 34); details: for ED50: Acinetobacter baumannii, in Mus musculus; for Survival rate: 7 days after infection
Protocol: (§1) The test strains on the agar medium were suspended in saline and adjusted to a Klett unit of about 200 using a Klett Photoelectric Colorimeter. […] Male ICR mice were inoculated intraperitoneally with 0.2 mL of the bacterial suspension. Two hours after the inoculation, saline or a solution for administering the agent of each concentration was administered subcutaneously to the mice in a single dose. The number of mice that survived from Day 1 to Day 7 after infection was recorded.

P. aeruginosa [5] = assay: Systemic infection lethal mouse model, ED50 (Example 15, Table 33); details: for Survival rate: 7 days after infection; for ED50: Pseudomonas aeruginosa, in Mus musculus, sc
Protocol: as §1

## C[C@@H](O)[C@H]1C(=O)N2C(C(=O)O)=C(S[C@@H]3CN[C@H](C(=O)N(C)C)C3)[C@H](C)[C@H]12 [MEPM, meropenem]
Serratia marcescens; KUB3169 Serratia marcescens Clinical isolate, carbapenemase genes Unidentified, read-out: MIC
  MIC: 2 µg/mL (≈ 5.22 µM)
Serratia marcescens; KUB3170 Serratia marcescens Clinical isolate, carbapenemase genes Unidentified
  MIC: 2 µg/mL (≈ 5.22 µM)
Serratia marcescens; KUB3171 Serratia marcescens Clinical isolate, carbapenemase genes -
  MIC: 2 µg/mL (≈ 5.22 µM)
Klebsiella aerogenes; KUB3614 Klebsiella aerogenes Clinical isolate
  MIC: 2 µg/mL (≈ 5.22 µM)
Klebsiella aerogenes; KUB3615 Klebsiella aerogenes Clinical isolate
  MIC: 0.12 µg/mL (≈ 0.313 µM)
A. baumannii; A. baumannii strain with AMR gene ADC-25, OXA-23, OXA-66, TEM-ID
  MIC: 64 µg/mL (≈ 167 µM)
A. baumannii; A. baumannii strain with AMR gene ADC-25, XA-23, OXA-66, strA, strB, sul2, TEM-1D
  MIC: 64 µg/mL (≈ 167 µM)
A. baumannii; A. baumannii strain with AMR gene OXA-23, OXA-69, TEM-1D
  MIC: 16 µg/mL (≈ 41.7 µM)
E. coli
  MICrange: ≤0.125 to 16 µg/mL
E. coli; Escherichia coli
  MIC50: ≤ 0.125 µg/mL
  MIC90: ≤ 0.125 µg/mL
P. aeruginosa [1]
  MIC50: 2 µg/mL (≈ 5.22 µM)
  MIC90: 32 µg/mL (≈ 83.4 µM)
[2]; Escherichia coli, ATCC25922, read-out: MICs of MEPM, E. coli ATCC 25922 (quality control strain), Albumin 0% (standard condition)
  MIC: 0.015 µg/mL (≈ 0.0391 µM)
[2]; Escherichia coli, ATCC25922, read-out: MICs of MEPM, E. coli ATCC 25922 (quality control strain), Albumin 4%
  MIC: 0.03 µg/mL (≈ 0.0782 µM)
[2]; Escherichia coli, ATCC25922, read-out: MICs of MEPM, E. coli ATCC 25922 (quality control strain), Plasma 20%
  MIC: 0.03 µg/mL (≈ 0.0782 µM)
[2]; Escherichia coli, ATCC25922, read-out: MICs of MEPM, E. coli ATCC 25922 (quality control strain), Plasma 50%
  MIC: 0.03 µg/mL (≈ 0.0782 µM)
[2]; Escherichia coli, ATCCBAA2340, read-out: MICs of MEPM, E. coli ATCC BAA-2340 (KPC-3), Albumin 0% (standard condition)
  MIC: 4 µg/mL (≈ 10.4 µM)
[2]; Escherichia coli, ATCCBAA2340, read-out: MICs of MEPM, E. coli ATCC BAA-2340 (KPC-3), Albumin 4%
  MIC: 4 µg/mL (≈ 10.4 µM)
[2]; Escherichia coli, ATCCBAA2340, read-out: MICs of MEPM, E. coli ATCC BAA-2340 (KPC-3), Plasma 20%
  MIC: 4 µg/mL (≈ 10.4 µM)
[2]; Escherichia coli, ATCCBAA2340, read-out: MICs of MEPM, E. coli ATCC BAA-2340 (KPC-3), Plasma 50%
  MIC: 0.5 µg/mL (≈ 1.3 µM)
[2]; Escherichia coli, ATCCBAA2469, read-out: MICs of MEPM, E. coli ATCC BAA-2469 (NDM-1), Albumin 0% (standard condition)
  MIC: 32 µg/mL (≈ 83.4 µM)
[2]; Escherichia coli, ATCCBAA2469, read-out: MICs of MEPM, E. coli ATCC BAA-2469 (NDM-1), Albumin 4%
  MIC: 16 µg/mL (≈ 41.7 µM)
[2]; Escherichia coli, ATCCBAA2469, read-out: MICs of MEPM, E. coli ATCC BAA-2469 (NDM-1), Plasma 20%
  MIC: ≤ 0.12 µg/mL
[2]; Escherichia coli, ATCCBAA2469, read-out: MICs of MEPM, E. coli ATCC BAA-2469 (NDM-1), Plasma 50%
  MIC: ≤ 0.12 µg/mL
[2]; Escherichia coli, NCTC13476, read-out: MICs of MEPM, E. coli NCTC 13476 (IMP-1), Albumin 0% (standard condition)
  MIC: 4 µg/mL (≈ 10.4 µM)
[2]; Escherichia coli, NCTC13476, read-out: MICs of MEPM, E. coli NCTC 13476 (IMP-1), Albumin 4%
  MIC: 4 µg/mL (≈ 10.4 µM)
[2]; Escherichia coli, NCTC13476, read-out: MICs of MEPM, E. coli NCTC 13476 (IMP-1), Plasma 20%
  MIC: 1 µg/mL (≈ 2.61 µM)
[2]; Escherichia coli, NCTC13476, read-out: MICs of MEPM, E. coli NCTC 13476 (IMP-1), Plasma 50%
  MIC: 0.5 µg/mL (≈ 1.3 µM)
[2]; Klebsiella pneumoniae, ATCCBAA2342, read-out: MICs of MEPM, K. pneumoniae ATCC BAA-2342 (KPC-3), Albumin 0% (standard condition)
  MIC: 16 µg/mL (≈ 41.7 µM)
[2]; Klebsiella pneumoniae, ATCCBAA2342, read-out: MICs of MEPM, K. pneumoniae ATCC BAA-2342 (KPC-3), Albumin 4%
  MIC: 32 µg/mL (≈ 83.4 µM)
[2]; Klebsiella pneumoniae, ATCCBAA2342, read-out: MICs of MEPM, K. pneumoniae ATCC BAA-2342 (KPC-3), Plasma 20%
  MIC: 16 µg/mL (≈ 41.7 µM)
[2]; Klebsiella pneumoniae, ATCCBAA2342, read-out: MICs of MEPM, K. pneumoniae ATCC BAA-2342 (KPC-3), Plasma 50%
  MIC: 16 µg/mL (≈ 41.7 µM)
[2]; Klebsiella pneumoniae, ATCCBAA2344, read-out: MICs of MEPM, K. pneumoniae ATCC BAA-2344 (KPC-2), Albumin 0% (standard condition)
  MIC: 16 µg/mL (≈ 41.7 µM)
[2]; Klebsiella pneumoniae, ATCCBAA2344, read-out: MICs of MEPM, K. pneumoniae ATCC BAA-2344 (KPC-2), Albumin 4%
  MIC: 32 µg/mL (≈ 83.4 µM)
[2]; Klebsiella pneumoniae, ATCCBAA2344, read-out: MICs of MEPM, K. pneumoniae ATCC BAA-2344 (KPC-2), Plasma 20%
  MIC: 16 µg/mL (≈ 41.7 µM)
[2]; Klebsiella pneumoniae, ATCCBAA2344, read-out: MICs of MEPM, K. pneumoniae ATCC BAA-2344 (KPC-2), Plasma 50%
  MIC: 16 µg/mL (≈ 41.7 µM)
[2]; Klebsiella pneumoniae, ATCCBAA2470, read-out: MICs of MEPM, K. pneumoniae ATCC BAA-2470 (NDM-1), Albumin 0% (standard condition)
  MIC: 16 µg/mL (≈ 41.7 µM)
[2]; Klebsiella pneumoniae, ATCCBAA2470, read-out: MICs of MEPM, K. pneumoniae ATCC BAA-2470 (NDM-1), Albumin 4%
  MIC: 8 µg/mL (≈ 20.9 µM)
[2]; Klebsiella pneumoniae, ATCCBAA2470, read-out: MICs of MEPM, K. pneumoniae ATCC BAA-2470 (NDM-1), Plasma 20%
  MIC: 0.5 µg/mL (≈ 1.3 µM)
[2]; Klebsiella pneumoniae, ATCCBAA2470, read-out: MICs of MEPM, K. pneumoniae ATCC BAA-2470 (NDM-1), Plasma 50%
  MIC: 0.5 µg/mL (≈ 1.3 µM)
[2]; Klebsiella pneumoniae, ATCCBAA2524, read-out: MICs of MEPM, K. pneumoniae ATCC BAA-2524 (OXA-48), Albumin 0% (standard condition)
  MIC: 1 µg/mL (≈ 2.61 µM)
[2]; Klebsiella pneumoniae, ATCCBAA2524, read-out: MICs of MEPM, K. pneumoniae ATCC BAA-2524 (OXA-48), Albumin 4%
  MIC: 0.5 µg/mL (≈ 1.3 µM)
[2]; Klebsiella pneumoniae, ATCCBAA2524, read-out: MICs of MEPM, K. pneumoniae ATCC BAA-2524 (OXA-48), Plasma 20%
  MIC: 2 µg/mL (≈ 5.22 µM)
[2]; Klebsiella pneumoniae, ATCCBAA2524, read-out: MICs of MEPM, K. pneumoniae ATCC BAA-2524 (OXA-48), Plasma 50%
  MIC: 4 µg/mL (≈ 10.4 µM)
[2]; read-out: MICs of MEPM, K pneumoniae NCTC13439 (VIM-1), Albumin 0% (standard condition)
  MIC: 4 µg/mL (≈ 10.4 µM)
[2]; read-out: MICs of MEPM, K pneumoniae NCTC13439 (VIM-1), Albumin 4%
  MIC: 2 µg/mL (≈ 5.22 µM)
[2]; read-out: MICs of MEPM, K pneumoniae NCTC13439 (VIM-1), Plasma 20%
  MIC: ≤ 0.12 µg/mL
[2]; read-out: MICs of MEPM, K pneumoniae NCTC13439 (VIM-1), Plasma 50%
  MIC: ≤ 0.12 µg/mL
[3]
  %fT > 8 µg/mL: ≥ 40%
[4]; Dose 10 mg/kg
  Survival rate: 10%
[4]; Dose 30 mg/kg
  Survival rate: 10%
[4]; Dose 60 mg/kg
  Survival rate: 10%
[4]; Dose 100 mg/kg
  Survival rate: 50%
Acinetobacter baumannii; Acinetobacter baumannii CDC-303 (OXA-23, OXA-66), single s.c. dose, with cilastatin 100 mg/kg
  ED50 of MEPM: ≥ 300 mg/kg
Acinetobacter baumannii; read-out: ED50 of MEPM, value estimated by probit analysis, CDC-83 (Serine and metallo), cell prints ND, estimate in brackets, above the highest dose of 300 mg/kg
  ED50: 401 mg/kg
Acinetobacter baumannii; read-out: ED50 of MEPM, value estimated by probit analysis, CDC-303 (Serine), cell prints ND, estimate in brackets, above the highest dose of 300 mg/kg
  ED50: 6550 mg/kg
Acinetobacter baumannii; sc, read-out: ED50 of MEPM
  ED50: ≥ 300 mg/kg
Acinetobacter baumannii; CDC-83 (Serine and metallo), Dose 30 mg/kg
  Survival rate: 0%
Acinetobacter baumannii; CDC-83 (Serine and metallo), Dose 100 mg/kg
  Survival rate: 10%
Acinetobacter baumannii; CDC-83 (Serine and metallo), Dose 200 mg/kg
  Survival rate: 20%
Acinetobacter baumannii; CDC-83 (Serine and metallo), Dose 300 mg/kg
  Survival rate: 40%
Acinetobacter baumannii; CDC-303 (Serine), Dose 50 mg/kg
  Survival rate: 10%
Acinetobacter baumannii; CDC-303 (Serine), Dose 100 mg/kg
  Survival rate: 0%
Acinetobacter baumannii; CDC-303 (Serine), Dose 200 mg/kg
  Survival rate: 10%
Acinetobacter baumannii; CDC-303 (Serine), Dose 300 mg/kg
  Survival rate: 20%
P. aeruginosa [5]; CDC-90 (Serine), Dose 10 mg/kg
  Survival rate: 0%
P. aeruginosa [5]; CDC-90 (Serine), Dose 30 mg/kg
  Survival rate: 10%
P. aeruginosa [5]; CDC-90 (Serine), Dose 100 mg/kg
  Survival rate: 90%
P. aeruginosa [5]; CDC-90 (Serine), Dose 300 mg/kg
  Survival rate: 100%
P. aeruginosa [5]; CDC-110 (Metallo), Dose 100 mg/kg
  Survival rate: 0%
P. aeruginosa [5]; CDC-110 (Metallo), Dose 150 mg/kg
  Survival rate: 30%
P. aeruginosa [5]; CDC-110 (Metallo), Dose 200 mg/kg
  Survival rate: 60%
P. aeruginosa [5]; CDC-110 (Metallo), Dose 300 mg/kg
  Survival rate: 60%
P. aeruginosa [5]; 2 h, read-out: ED50 of MEPM (95% confidence intervals), CDC-90 (Serine), single subcutaneous dose 2 hours after infection, with cilastatin at 100 mg/kg
  ED50: 54.8 mg/kg
P. aeruginosa [5]; 2 h, read-out: ED50 of MEPM (95% confidence intervals), CDC-110 (Metallo), single subcutaneous dose 2 hours after infection, with cilastatin at 100 mg/kg
  ED50: 218 mg/kg
P. aeruginosa [5]; read-out: ED50 of MEPM, P. aeruginosa CDC-90 (KPC-5), single s.c. dose, with cilastatin 100 mg/kg
  ED50: 54.8 mg/kg
P. aeruginosa [5]; read-out: ED50 of MEPM, P. aeruginosa CDC-110 (VIM-2), single s.c. dose, with cilastatin 100 mg/kg
  ED50: 218 mg/kg
